Results as given in PubChem BioAssay (NCI).
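Five compound concentrations were applied to cells in 96-well plates for 48 hours; endpoints were derived by simple linear interpolation of the resulting dose-response curve. GI50 is the concentration that inhibits growth by half. TGI denotes the concentration required for complete inhibition of growth.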

Key:
Assay in all cases: DTP human tumour cell line panel, 48 h
[1] = system: SK-OV-3 ovarian
[2] = system: HL-60(TB) leukemia
[3] = system: U251 CNS
[4] = system: SR leukemia
[5] = system: SN12C renal
[6] = system: HOP-92 NSCLC
[7] = system: COLO 205 colon
[8] = system: OVCAR-4 ovarian
[9] = system: HS 578T breast
[10] = system: HCC-2998 colon

| SMILES | GI50 [1] [µM] | TGI [1] [µM] | GI50 [2] [µM] | TGI [2] [µM] | GI50 [3] [µM] | TGI [3] [µM] | GI50 [4] [µM] | TGI [4] [µM] | GI50 [5] [µM] | TGI [5] [µM] | GI50 [6] [µM] | TGI [6] [µM] | GI50 [7] [µM] | TGI [7] [µM] | GI50 [8] [µM] | TGI [8] [µM] | GI50 [9] [µM] | TGI [9] [µM] | GI50 [10] [µM] | TGI [10] [µM] |
| --- | --- | --- | --- | --- | --- | --- | --- | --- | --- | --- | --- | --- | --- | --- | --- | --- | --- | --- | --- | --- |
| Nc1c(C(=O)Nc2ccccc2F)sc2nc3c(cc12)C(=O)CCC3 | 0.746 | > 100 | 2.4 | > 100 | 1.23 | > 100 | 1.68 | > 100 | > 65.3 | > 100 | 0.121 | > 100 | 0.696 | 6.81 | > 21 | > 100 | 2.01 | > 25.5 | 2.2 | > 100 |
| CCc1nc(Cl)nc(Cl)c1Cl | – | 18.4 | – | 3.59 | – | 3.32 | – | 0.444 | – | 6.69 | – | 5.16 | – | 14.6 | – | 2.06 | – | 9.39 | – | 2.24 |
| CCCCn1sc(=O)n(Cc2ccc(CNC(=O)OCc3ccc4c(Br)cc(Br)c(O)c4n3)cc2)c1=O | 1.72 | > 100 | 0.374 | – | 0.659 | > 100 | 0.404 | > 100 | 0.53 | > 100 | 1.41 | > 100 | 24.8 | > 100 | 0.701 | > 100 | 0.959 | > 100 | 4.25 | > 69.8 |
| CCCSC1=NC2C(N(CC)C(=O)N2CC)N1/N=C/C=C/c1ccccc1[N+](=O)[O-] (centres undefined) | 6.07 | > 100 | 3.27 | 12.1 | 3.42 | > 100 | 1.1 | 5.53 | 3.84 | > 100 | 1.27 | 8.47 | 3.13 | 56.5 | 6.72 | > 100 | 2.39 | > 100 | 2.57 | 9.27 |
| Cc1ccc(S(=O)(=O)Cc2nc(-c3ccc(C(=O)NCc4cccnc4)cc3)oc2C)cc1 | 14.5 | > 100 | 1.97 | > 100 | 1.01 | > 76.7 | 0.514 | > 100 | < 0.01 | > 100 | 13 | > 100 | 0.492 | > 100 | 2.64 | > 100 | 7.9 | > 100 | 18.4 | > 100 |
